Experimental data taken from PubChem BioAssay (NCI).
“And” between values parts separate entries of the source, which are not always exact repeats. Identical values can stand only once.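 Cultured in 96-well plates, cells were exposed to test compound for 48 hours across five concentrations. TGI: concentration producing complete growth inhibition.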

Assays:
Assay in all cases: NCI tumour cell line growth inhibition, 48 h
[1] = test system: A498 renal
[2] = test system: COLO 205 colon
[3] = test system: HOP-62 NSCLC
[4] = test system: M14 melanoma
[5] = test system: MDA-MB-231 breast
[6] = test system: MDA-N
[7] = test system: MOLT-4 leukemia
[8] = test system: NCI-H226 lung
[9] = test system: NCI-H23 lung
[10] = test system: OVCAR-3 ovarian
[11] = test system: OVCAR-4 ovarian
[12] = test system: OVCAR-5 ovarian
[13] = test system: SF-268 CNS
[14] = test system: SF-295 CNS
[15] = test system: SN12C renal
[16] = test system: SR leukemia
[17] = test system: SW-620 colon
[18] = test system: TK-10 renal
[19] = test system: U251 CNS
[20] = test system: UACC-62 melanoma

SMILES | TGI [1] [µM] | TGI [2] [µM] | TGI [3] [µM] | TGI [4] [µM] | TGI [5] | TGI [6] [µM] | TGI [7] [µM] | TGI [8] | TGI [9] [µM] | TGI [10] [µM] | TGI [11] | TGI [12] [µM] | TGI [13] [µM] | TGI [14] [µM] | TGI [15] [µM] | TGI [16] | TGI [17] | TGI [18] [µM] | TGI [19] | TGI [20]
Oc1ccccc1/C=N/Nc1nc(N/N=C/c2ccccc2O)nc(N/N=C/c2ccccc2O)n1 | > 100 | > 100 | > 100 | > 100 | > 100 µM | > 100 | > 100 | > 100 µM | > 100 | > 100 | > 100 µM | > 100 | > 100 | > 100 | > 100 | > 100 µM | > 100 µM | > 100 | > 100 µM | > 100 µM
CN(CCCCN1CCCC1)CCCN(C)C(=O)Cc1ccc(Cl)c(Cl)c1 | 30.7 | 28.9 | 34.4 | 38.1 | 26.1 µM | 15.5 | 26.5 | 51.9 µM | 37.7 | 62.4 | 53.8 µM | 57.8 | > 100 | 38.8 | 37.8 | 15.6 µM | 42.6 µM | 33.7 | 32.4 µM | 16.9 µM
O=C(CC(C(=O)c1ccco1)c1ccsc1)c1ccco1 (centres undefined) | > 100 | > 100 | > 100 | > 100 | > 100 µM | > 100 | > 100 | > 100 µM | > 100 | > 100 | > 100 µM | > 100 | > 100 | > 100 | > 100 | > 100 µM | > 100 µM | > 100 | > 100 µM | > 100 µM
N=C(c1ccc2ccccc2c1)c1ccccc1Cc1ccccc1 | > 100 | > 100 | > 100 | > 100 | > 100 µM | > 100 | 67.8 | 98.9 µM | > 100 | 57.3 | > 100 µM | > 100 |  | > 100 | > 100 | > 100 µM | > 100 µM | > 100 | > 100 µM | > 100 µM
CCCCc1c2c(nc3c1CCCC3O)CCCC2 (centres undefined) | > 100 | > 100 | > 100 | > 100 | > 100 µM | > 100 | > 100 | > 100 µM | > 100 | > 100 | > 100 µM | > 100 | > 100 | > 100 | > 100 | > 100 µM | > 100 µM | > 100 | > 100 µM | > 100 µM
Oc1cc(Br)cc2cccnc12 | 24.3 | 34.8 | 81.9 | > 37.7 | 19.1 µM | 97 | 9.84 | 58 µM | 31.2 | 13.7 | > 65.3 µM | > 100 | > 42.2 | 32.7 | > 55.6 | 5.92 µM | 16.9 µM | > 100 | > 58.4 µM | 7.81 µM
Cc1ccc(NC(=O)CSc2nc(C)nc3c2sc(=S)n3-c2ccccc2)cc1 | > 10 | > 10 | 5.08 | > 10 | > 10 µM | > 10 | > 10 | 9.43 µM | > 10 | > 10 | 6.06 µM | > 10 | > 10 | > 10 | > 10 | > 10 µM | > 10 µM | > 10 | > 10 µM | > 10 µM
FC(F)(Sc1ccccn1)c1nc2ccccc2o1 | > 100 | > 100 | > 100 | > 100 | > 100 µM | > 100 | > 100 | > 100 µM | > 100 | > 100 | > 100 µM | > 100 | > 100 | > 100 | > 100 | > 100 µM | > 100 µM | > 100 | > 100 µM | > 100 µM
COC(=O)c1sc2ncc3c(c2c1N)CCCCCC3 | > 100 | > 100 | > 100 | > 100 | > 100 µM | > 100 | > 100 | > 100 µM | > 100 | > 100 | > 100 µM | > 100 | > 100 | > 100 | > 100 | > 100 µM | > 100 µM | > 100 | > 100 µM | > 100 µM
O=C(NC(CS)C(=O)O)c1cccc2c(=O)c3ccccc3[nH]c12 (centres undefined) | > 100 | > 100 | > 100 | > 100 | > 100 µM | > 100 | > 100 | > 100 µM | > 100 | > 100 | > 100 µM | > 100 | > 100 | > 100 | > 100 | > 100 µM | > 100 µM | > 100 | > 100 µM | > 100 µM
COC(=O)c1ccccc1CC1Cc2ccc3c(c2C1)CCC3 (centres undefined) | > 100 | 34.5 | > 100 | > 100 | 50.5 µM | > 100 | 53.9 | > 100 µM | > 100 | > 100 | > 100 µM | 91.3 | > 100 | > 100 | > 100 | 27.1 µM | > 100 µM | > 100 | 85.1 µM | > 100 µM
COc1ccc(C(=O)Cn2c(C(=O)/C=C/c3ccco3)nc3ccccc32)cc1 | > 100 | 71.8 | > 100 | > 100 | > 100 µM | > 100 | > 100 | > 100 µM | > 100 | 72.3 | > 100 µM | > 100 | 91.4 |  | > 100 | > 100 µM | > 100 µM | > 100 | > 100 µM | > 100 µM
O=C1c2ccccc2C(=O)[C@@]23O[C@@]12C1(Oc2cccc4cccc(c24)O1)[C@@H]1O[C@@H]1[C@@H]3O | > 100 | 27 | 25.7 | 23.4 | 41.1 µM | 32 | 24.5 | 28.9 µM | 29.6 | 12.6 | 17.4 µM | 39.3 | 25.4 | 26 | 26.1 | > 100 µM | > 49.1 µM | 15.9 | > 47.6 µM | 27.2 µM
COC(=O)C1(c2cc3ccccc3n2S(=O)(=O)c2ccccc2)CC2C=CC1NC2 (centres undefined) | 13 | 4.61 | 3.92 | 3.44 | 3.67 µM | 6.23 | 4.95 | 21.4 µM | 6.85 | 5.43 | 6.07 µM | 6.37 | > 20.2 | 10.2 | 4.69 | 0.427 µM | > 21.7 µM | 4.85 | 2.75 µM | 3.31 µM
CC(=O)OCC(OC(C)=O)C(OC(C)=O)C(OC(C)=O)C(C=NN(C(C)=O)S(=O)(=O)c1ccc(/C=C2\NC(=O)N(C)C2=O)cc1)OC(C)=O (centres undefined) | > 100 | > 100 | > 100 | > 100 | > 100 µM and 96.4 µM | > 100 | 45.6 | 96.5 µM and > 100 µM | > 100 | > 100 | 95.7 µM and > 100 µM | > 100 | > 100 | > 100 | > 100 | 44.1 µM and 61 µM | 83.7 µM and 97.7 µM | 40.4 | 66 µM and > 100 µM | 23.3 µM and 29.5 µM
C=CCN1C(=O)/C(=C/c2ccc(OC)cc2)NC1=S | > 100 | > 100 | > 100 | > 100 | > 100 µM | > 100 | 25.6 | > 100 µM | > 100 | > 100 | > 100 µM | > 100 | > 100 | > 100 | > 100 | > 100 µM | > 100 µM | > 100 | > 100 µM | > 100 µM
Oc1cc(-c2ccccc2)cn2c1nc1ccccc12 | > 100 | > 100 | > 52.6 | > 100 | > 100 µM | > 100 | > 100 | > 100 µM | > 100 | > 100 | > 100 µM | > 100 | > 100 | > 46.1 | > 100 | > 28.5 µM | > 100 µM | > 100 | > 100 µM | 19.5 µM
C=C(C)C1Cc2c(cc(O)c3c(=O)c4c(oc23)C(O)Oc2cc(OC)c(OC)cc2-4)O1 (centres undefined) | > 10 | > 10 | > 10 | > 10 | > 10 µM | > 10 | > 10 | > 10 µM | > 10 | > 10 | > 10 µM | > 10 | > 10 | > 10 | > 10 | > 10 µM | > 10 µM | > 10 | > 10 µM | > 10 µM
COc1cc(OC)c2c(=O)cc(-c3ccccc3F)[nH]c2c1 | > 100 | > 100 | > 100 | > 100 | > 100 µM | > 100 | > 100 | > 100 µM | > 100 | > 100 | 53.3 µM | > 100 | > 100 | > 100 | > 100 | > 100 µM | > 100 µM | 84.4 | > 100 µM | > 100 µM
CC(C)(C)C(=O)C(C(=O)C(C)(C)C)C(=O)C(C)(C)C | > 100 | > 100 | > 100 | > 100 | > 100 µM | > 100 | > 100 | > 100 µM | > 100 | > 100 | > 100 µM | > 100 | > 100 | > 100 | > 100 | > 100 µM | > 100 µM | > 100 | > 100 µM | 
Cc1ccc(N=Nc2ccc(O)c(CN(C)C)c2)cc1C | 47.4 | 25.6 | 52.5 | 81.1 | > 100 µM | > 100 | 61.5 | > 100 µM | > 100 | > 100 | > 100 µM | > 100 | > 100 | > 100 | > 100 | > 100 µM | > 100 µM | 43.3 | > 100 µM | 34.6 µM
COc1ccc2nc3ccc(OC)cc3c(SCc3ccc([N+](=O)[O-])cc3)c2c1 | > 100 | > 100 | > 100 | > 100 | > 100 µM | > 100 | > 100 | > 100 µM | > 100 | > 100 | 69.6 µM | > 100 | > 100 | > 100 | > 100 | > 100 µM | > 100 µM | > 100 |  | > 100 µM
[O-][n+]1onc2c1CCC(=N\O)/C2=N/Nc1ccccc1 | > 100 | > 100 | > 100 | > 100 | > 100 µM | > 100 | > 100 | > 100 µM | > 100 | > 100 | > 100 µM | > 100 | > 100 | > 100 | > 100 | > 100 µM | > 100 µM | > 100 |  | > 100 µM
COc1cc(C)c2c(=O)c3ccccc3n(C)c2c1 | 56.1 | 91.1 |  | 60.8 | > 100 µM | > 100 | > 100 | 69 µM | 77 | 52.7 | 45.6 µM | > 100 | 95.9 | 34.9 | 41.5 | 43 µM | > 100 µM | > 100 | 44.8 µM | 39.2 µM
